Assay results: patent US20250179113A1, “STEROID COMPOUND FOR TREATING CENTRAL NERVOUS SYSTEM DISEASE, METHOD FOR PREPARING SAME, AND USE AND PHARMACEUTICAL COMPOSITION THEREOF” (HUNAN KYF PHARMACEUTICAL CO., LTD., priority 2022, published 2025)

What was measured:
[1] = tested on: mouse model of acute depression; assay: Tail-suspension test, mouse model of acute depression; assay type: in vivo, ICR mice; details: 3 days; for Average Duration of Immobile State (Mean ± Standard Deviation), female: female ICR mice, model control 170.57 ± 28.43; for Average Duration of Immobile State (Mean ± Standard Deviation), female / Average Duration of Immobile State (Mean ± Standard Deviation), male: 26.0 mg/kg intraperitoneal, tested 24 h after administration, last 4 of 6 min, n = 5, 26 mg/kg; for Average Duration of Immobile State (Mean ± Standard Deviation), male: male ICR mice, model control 151.23 ± 35.02
Method: The experimental animals were administered drugs according to the grouping after 3 days of adaptive feeding. The experimental groups included the model group, the compound TM1 group, and the compound TM2 group. For each group of compounds to be tested, edible oil was used as the vehicle, and the administration route for all animals was intraperitoneal injection. The vehicle control group was given the same volume of edible oil by intraperitoneal injection, and the administration volume for each group was 20 mL/kg.
Brexanolone is used to treat postpartum depression. Its usage and dosage are continuous intravenous injection for 60 hours, with a dosage of 100 mg every 12 hours. At the beginning of the administration, it is necessary to gradually increase the drug use rate, and at the end of the administration, it is necessary to gradually decrease the drug use rate. Therefore, the total drug use within the treatment cycle is 450 mg. Referring to the Brexanolone administration cycle, the administration cycle was set to 3 days, with one administration in the morning every day.
The clinical dosage of Brexanolone is approximately 200 mg/d. Calculated based on an adult weight of 70 kg, the clinical dose of Brexanolone is 2.857 mg/kg/d. The equivalent dose conversion coefficient between humans and mice calculated according to body surface area is 0.0026. Taking the weight of mice as 20 g, the converted dose for mice is: 2.857 mg/kg/d×70 kg×0.0026/0.02 kg=25.999 mg/kg/d, which is counted as 26.0 mg/kg/d.
This study is for validity verification, and single-dose detection is used for the time being. The administration cycle and clinical dosage of the compounds of the present invention refer to the administration cycle and clinical dosage of Brexanolone mentioned above.
The detection indicator is the behavioral changes of mice in the last 4 minutes within 6 minutes, including the time when the immobile state first appears and the duration of the immobile state. Among them, the immobile state refers to the state in which the animal gives up active struggling and remains completely still.
Detection method: 24 hours after the administration of drugs to animals in each group, the animals in each group were placed in the laboratory for 30 minutes to 1 hour to reduce the animals' anxiety about the new environment. Install a video camera in front of the tail suspension box, set the corresponding parameters in the software, and enter the information such as the animal number and status. Take out the experimental animals, mark them with a marker pen at a position […] away from the tip of the tail, fix the tail at the marked position with medical tape. After the tails of the animals in the same group are fixed with tape, quickly suspend the mice in the same group into the tail suspension box device, turn on the behavioral software to record the behavioral situation for 6 minutes, and analyze the behavioral changes in the last 4 minutes.

[2] = tested on: GABAa receptor chloride ion channel of U251 cells; assay: MQAE chloride ion fluorescent probe test on U251 cells (GABA-activated chloride channel); assay type: cell-based, human; details: sample 10 μM (Table 1), GABA in matrix, 1 min after addition, n = 6, vehicle control 42.543 ± 4.202
[3] = tested on: GABAA receptor (primary hippocampal neuronal cells); assay: Whole-cell patch clamp of GABA receptor currents in primary hippocampal neuronal cells; assay type: cell-based, SD suckling mice; details: average

Row | SMILES | Average Duration of Immobile State (Mean ± Standard Deviation), female [1] | Average Duration of Immobile State (Mean ± Standard Deviation), male [1] | Average fluorescence intensity (mean ± standard deviation) [2] | immobility time prolonged compared with the model control group, male animals ([1]; male mice, 26.0 mg/kg i.p.) | The percentage increase after calibration with GABA 15 μM as the reference, GABA 15 μM + TM 18 0.01 μM ([3]; TM 18 0.01 μM with GABA 15 μM) | The percentage increase after calibration with GABA 15 μM as the reference, GABA 15 μM + TM 18 0.1 μM ([3]; TM 18 0.1 μM with GABA 15 μM) | The percentage increase after calibration with GABA 15 μM as the reference, GABA 15 μM + TM 18 1 μM ([3]; TM 18 1 μM with GABA 15 μM)
1 | CC1(O)CCC2(C)C(CCC3C2CCC2(C)C(C(=O)Cn4cc(C#N)cn4)CCC32)C1 (stereo not shown) [TM17] | 198.88 ± 15.08 s | 177.67 ± 20.05 s | 47.499±2.240 | – | – | – | –
2 | CC1(O)CCC2(C)C(CCC3C2CCC2(C)C(C(=O)Cn4cc(C#N)cn4)CCC32)C1 (stereo not shown) [TM18] | 174.02 ± 18.28 s | 193.80 ± 15.62 s | 48.621±1.006 | about 20% | 129.85% | 288.44% | 108.82%
